Results published in the NIST ThermoML archive (doi:10.1016/j.jct.2013.09.017).

Experiments:
[1] = 101 kPa, Liquid; for viscosity: Capillary tube (Ostwald / Ubbelohde) method; for mass density: Vibrating tube method
[2] = xn = mol fraction of the nth substance listed; settings: 101 kPa, Liquid; for viscosity: Capillary tube (Ostwald / Ubbelohde) method; for mass density: Vibrating tube method

CCCCCCCCCC [decane]
[1]
Settings	mass density [kg/m3]	viscosity [mPa·s]
283.15 K	737.54	1.082
293.15 K	730.01	0.925
298.15 K	726.22	0.858
303.15 K	722.44	0.797

CCCCCCCCCC [decane] + CCCCCCCCN(CCCCCCCC)CCCCCCCC
[2], x2 = 0
Settings	mass density [kg/m3]	viscosity [mPa·s]
283.15 K	737.54	1.082
293.15 K	730.01	0.925
303.15 K	722.44	0.797

CCCCCCC [heptane]
[1]
Settings	mass density [kg/m3]	viscosity [mPa·s]
283.15 K	692.44	0.469
293.15 K	684.05	0.42
298.15 K	679.78	0.397
303.15 K	675.54	0.377

CCCCCCC [heptane] + CCCCCCCCN(CCCCCCCC)CCCCCCCC
[2], x2 = 0
Settings	mass density [kg/m3]	viscosity [mPa·s]
283.15 K	692.44	0.469
293.15 K	684.05	0.42
303.15 K	675.54	0.377

CCCCCCCCC [nonane]
[1]
Settings	mass density [kg/m3]	viscosity [mPa·s]
283.15 K	725.58	0.826
293.15 K	717.86	0.713
298.15 K	713.95	0.667
303.15 K	710.06	0.623

CCCCCCCCC [nonane] + CCCCCCCCN(CCCCCCCC)CCCCCCCC
[2], x2 = 0
Settings	mass density [kg/m3]	viscosity [mPa·s]
283.15 K	725.58	0.826
293.15 K	717.86	0.713
303.15 K	710.06	0.623

CCCCCCCC [octane]
[1]
Settings	mass density [kg/m3]	viscosity [mPa·s]
283.15 K	710.61	0.613
293.15 K	702.6	0.541
298.15 K	698.55	0.51
303.15 K	694.5	0.481

CCCCCCCC [octane] + CCCCCCCCN(CCCCCCCC)CCCCCCCC
[2], x2 = 0
Settings	mass density [kg/m3]	viscosity [mPa·s]
283.15 K	710.61	0.613
293.15 K	702.6	0.541
303.15 K	694.5	0.481

CCCCCCCCN(CCCCCCCC)CCCCCCCC [trioctylamine]
[1]
Settings	mass density [kg/m3]	viscosity [mPa·s]
283.15 K	817.08	14.25
293.15 K	810.48	9.957
298.15 K	807.26	8.392
303.15 K	803.88	7.114

CCCCCCCCN(CCCCCCCC)CCCCCCCC [trioctylamine] + CCCCCCCC
[2]
Settings	mass density, 283.15 K [kg/m3]	mass density, 293.15 K [kg/m3]	mass density, 303.15 K [kg/m3]	viscosity, 283.15 K [mPa·s]	viscosity, 293.15 K [mPa·s]	viscosity, 303.15 K [mPa·s]
x1 = 0.1044	737.14	729.58	721.95	1.045	0.899	0.78
x1 = 0.2005	755.2	747.83	740.4	1.63	1.356	1.145
x1 = 0.2992	769.49	762.3	755.07	2.385	1.933	1.593
x1 = 0.4001	780.98	773.93	766.85	3.399	2.665	2.145
x1 = 0.4977	789.85	782.91	775.97	4.545	3.491	2.734
x1 = 0.6012	797.54	790.72	783.87	5.969	4.482	3.46
x1 = 0.7015	803.68	796.94	790.09	7.556	5.594	4.231
x1 = 0.7978	808.69	802	795.3	9.424	6.848	5.092
x1 = 0.897	813.09	806.45	799.81	11.61	8.242	6.01
x1 = 1	817.08	810.48	803.88	14.25	9.957	7.114

CCCCCCCCN(CCCCCCCC)CCCCCCCC [trioctylamine] + CCCCCCCCC
[2]
Settings	mass density, 283.15 K [kg/m3]	mass density, 293.15 K [kg/m3]	mass density, 303.15 K [kg/m3]	viscosity, 283.15 K [mPa·s]	viscosity, 293.15 K [mPa·s]	viscosity, 303.15 K [mPa·s]
x1 = 0.1015	746.06	738.6	731.08	1.277	1.072	0.918
x1 = 0.2014	761.56	754.29	746.99	1.932	1.588	1.326
x1 = 0.3016	773.78	766.67	759.52	2.701	2.163	1.766
x1 = 0.3988	783.37	776.38	769.35	3.656	2.862	2.273
x1 = 0.4969	791.34	784.45	777.53	4.815	3.685	2.881
x1 = 0.5956	798.14	791.33	784.51	6.134	4.579	3.514
x1 = 0.6953	803.91	797.16	790.4	7.725	5.664	4.267
x1 = 0.7943	808.76	802.07	795.37	9.548	6.874	5.069
x1 = 0.9025	813.41	806.77	800.13	11.89	8.466	6.161
x1 = 1	817.08	810.48	803.88	14.25	9.957	7.114

CCCCCCCCN(CCCCCCCC)CCCCCCCC [trioctylamine] + CCCCCCCCCC
[2]
Settings	mass density, 283.15 K [kg/m3]	mass density, 293.15 K [kg/m3]	mass density, 303.15 K [kg/m3]	viscosity, 283.15 K [mPa·s]	viscosity, 293.15 K [mPa·s]	viscosity, 303.15 K [mPa·s]
x1 = 0.1113	755.32	748.01	740.66	1.64	1.371	1.152
x1 = 0.1979	766.34	759.17	751.96	2.266	1.837	1.514
x1 = 0.297	776.77	769.72	762.64	3.092	2.448	1.976
x1 = 0.3974	785.51	778.56	771.59	4.092	3.172	2.515
x1 = 0.5044	793.3	786.44	779.56	5.402	4.086	3.174
x1 = 0.5913	798.73	791.93	785.11	6.558	4.896	3.743
x1 = 0.6888	804.03	797.29	790.53	8.006	5.85	4.389
x1 = 0.7962	809.11	802.43	795.73	9.857	7.086	5.238
x1 = 0.8991	813.37	806.73	800.09	11.97	8.401	6.09
x1 = 1	817.08	810.48	803.88	14.25	9.957	7.114
